Columns and labels:
METTL17 = biological target: T1, METTL17 (Homo sapiens, UniProt Q9H7H0); experiment: cryo-EM structure of native mtSSU assembly intermediates; format: binding; conditions: architectural cofactor; METTL17 bound to pre-mtSSU
T1 construct: endogenous METTL17 with C-terminal linker-twinStrep-FLAG-10xHis-TEV-SPOT-3C-GFP tag, eluted with 3C protease
T1 sequence (Q9H7H0 28-456): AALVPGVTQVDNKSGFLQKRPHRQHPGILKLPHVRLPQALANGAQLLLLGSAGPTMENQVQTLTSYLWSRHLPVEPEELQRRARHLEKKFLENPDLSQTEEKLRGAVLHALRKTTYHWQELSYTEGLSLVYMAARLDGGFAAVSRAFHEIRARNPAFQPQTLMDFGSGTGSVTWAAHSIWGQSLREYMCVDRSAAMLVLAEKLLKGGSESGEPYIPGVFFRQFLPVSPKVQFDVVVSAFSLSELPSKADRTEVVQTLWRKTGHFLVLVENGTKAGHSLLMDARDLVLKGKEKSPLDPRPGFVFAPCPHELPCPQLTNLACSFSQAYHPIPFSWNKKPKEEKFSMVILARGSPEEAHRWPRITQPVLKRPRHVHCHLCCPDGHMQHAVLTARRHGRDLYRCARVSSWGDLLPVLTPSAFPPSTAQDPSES

Rsm22 = biological target: T2, Rsm22 (Saccharomyces cerevisiae, UniProt P36056); experiment: as above; format: binding; conditions: architectural cofactor; Rsm22 bound to pre-mtSSU
T2 construct: native yeast mtSSU assembly intermediates; untagged Rsm22 in Ccm1-purified states 1 and 2, C-terminal linker-TEV-alfa-3C-mCherry tag (cleaved) in state 3
T2 sequence (P36056 16-628): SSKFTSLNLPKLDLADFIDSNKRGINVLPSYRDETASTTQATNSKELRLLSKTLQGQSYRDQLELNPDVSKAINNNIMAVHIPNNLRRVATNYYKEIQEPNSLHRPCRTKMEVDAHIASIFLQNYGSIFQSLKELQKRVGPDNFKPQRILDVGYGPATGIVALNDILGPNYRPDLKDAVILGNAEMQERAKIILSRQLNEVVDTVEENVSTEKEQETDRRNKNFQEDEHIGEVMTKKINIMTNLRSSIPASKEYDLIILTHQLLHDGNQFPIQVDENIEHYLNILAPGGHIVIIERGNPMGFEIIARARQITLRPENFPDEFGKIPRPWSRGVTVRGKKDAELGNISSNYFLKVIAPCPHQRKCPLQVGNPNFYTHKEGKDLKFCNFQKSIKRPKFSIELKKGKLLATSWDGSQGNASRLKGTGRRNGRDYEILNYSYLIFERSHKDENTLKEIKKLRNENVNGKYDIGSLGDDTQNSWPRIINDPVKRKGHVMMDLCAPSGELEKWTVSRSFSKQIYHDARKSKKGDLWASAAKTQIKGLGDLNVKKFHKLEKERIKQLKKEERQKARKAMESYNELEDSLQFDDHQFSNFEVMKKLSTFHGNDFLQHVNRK

## [S]12[Fe]3[S]4[Fe]1[S]1[Fe]2[S]3[Fe]41 [Fe4S4 cluster]
METTL17
  cryo-EM structure of native mtSSU assembly intermediates: identified an Fe4S4 cluster as an architectural cofactor of the Rsm22 (METTL17) protein family
Rsm22
  cryo-EM structure of native mtSSU assembly intermediates: identified an Fe4S4 cluster as an architectural cofactor of the Rsm22 (METTL17) protein family

From publication PMC9892005, “Principles of mitoribosomal small subunit assembly in eukaryotes” (Nature, 2022)
